Data set [1] in a line: Steady-state pharmacokinetics of semaglutide. The following applies: 1.0 mg s.c. at steady state; estimated in 34 participants; geometric mean (CV, %).
Excerpt: Blood samples were drawn throughout the trial to assess PK (trough values).
time–concentration curve during a dosing interval), calculated using standard non-
compartmental methods using the linear trapezoidal method on the observed concentrations
using actual time points; maximum concentration (Cmax), derived as the maximum of all
half-life (t½), calculated as log2/λz, where λz was estimated by log-linear regression on the
The conditions of data set [2]: cited from earlier work. From the text: Semaglutide (Novo Nordisk, Bagsværd, Denmark) is a GLP-1 analogue in development for the once-weekly treatment of type 2 diabetes. It has 94% structural homology to native human GLP-1, and is based on the same […] technology as liraglutide. Important structural modifications make semaglutide more resistant to degradation by dipeptidyl peptidase-4 and improve binding to albumin [16]. These modifications result in a t ½ of approximately 1 week, making semaglutide appropriate for once-weekly s.c. administration, with a fully retained potency.

The subject of data set [3] is participants with type 2 diabetes. The settings on record: in vivo.
Description: Adverse events (AEs) were recorded from the time of the participant signing informed consent through to the end of follow-up and were regarded as treatment-emergent adverse events (TEAEs) if beginning (or increasing in severity) after the first study dose and no later than the end of follow-up.

The structures appear in SMILES notation.

Take `CC[C@H](C)[C@H](NC(=O)[C@H](Cc1ccccc1)NC(=O)[C@H](CCC(=O)O)NC(=O)[C@H](CCCCNC(=O)COCCOCCNC(=O)COCCOCCNC(=O)CC[C@H](NC(=O)CCCCCCCCCCCCCCCCC(=O)O)C(=O)O)NC(=O)[C@H](C)NC(=O)[C@H](C)NC(=O)[C@H](CCC(N)=O)NC(=O)CNC(=O)[C@H](CCC(=O)O)NC(=O)[C@H](CC(C)C)NC(=O)[C@H](Cc1ccc(O)cc1)NC(=O)[C@H](CO)NC(=O)[C@H](CO)NC(=O)[C@@H](NC(=O)[C@H](CC(=O)O)NC(=O)[C@H](CO)NC(=O)[C@@H](NC(=O)[C@H](Cc1ccccc1)NC(=O)[C@@H](NC(=O)CNC(=O)[C@H](CCC(=O)O)NC(=O)C(C)(C)NC(=O)[C@@H](N)Cc1cnc[nH]1)[C@@H](C)O)[C@@H](C)O)C(C)C)C(=O)N[C@@H](C)C(=O)N[C@@H](Cc1c[nH]c2ccccc12)C(=O)N[C@@H](CC(C)C)C(=O)N[C@H](C(=O)N[C@@H](CCCNC(=N)N)C(=O)NCC(=O)N[C@@H](CCCNC(=N)N)C(=O)NCC(=O)O)C(C)C` [semaglutide, Semaglutide]: the Vz/F in data set [1] is listed as 11.2 (18.6) l. In addition, the t½ entry in data set [2] is given as “approximately 1 week”. In data set [3], the Anti-semaglutide antibodies entry is “no anti-”; the “Any TEAE, number of participants with events (%)” value is given as 28 (75.7); the “Gastrointestinal disorders, number of participants with events (%)” value was 19 (51.4); the “Injury, poisoning and procedural complications, number of participants with events (%)” value is reported as 1 (2.7). In data set [3], the “Metabolism and nutrition disorders, number of participants with events (%)” value is 4 (10.8); the “Musculoskeletal and connective disorders, number of participants with events (%)” value was 1 (2.7); the “Nervous system disorders, number of participants with events (%)” value is 5 (13.5); the “Participants with TEAEs” value was 75.7%. For the same molecule, in data set [3], the Participants with diarrhoea stood at 10.8%, the “Participants with gastrointestinal TEAEs” value is 51.4%, the Participants with nausea is recorded as 18.9% and the Participants with vomiting is listed as 16.2%. In addition, in data set [3], the “Serious TEAE, number of participants with events (%)” value is reported as 2 (5.4); the “Severe TEAE, number of participants with events (%)” value is on record as 1 (2.7); the Systolic blood pressure entry is recorded as “slightly decreased”; the “TEAE leading to withdrawal, number of participants with events (%)” value is given as 1 (2.7). The “Vascular disorders, number of participants with events (%)” value in data set [3] is 3 (8.1).

These data come from paper PMC5491562, “Effects of semaglutide on beta cell function and glycaemic control in participants with type 2 diabetes: a randomised, double-blind, placebo-controlled trial” (Diabetologia, 2017).
